Patent US11117926B2, “Cholane derivatives for use in the treatment and/or prevention of FXR and TGR5/GPBAR1 mediated diseases” (BAR PHARMACEUTICALS S.R.L., priority 2014, dated 2021)

What was measured:
[1] = target: T1, FXR (Homo sapiens, UniProt Q96RI1); test: FXR mediated transactivation (luciferase reporter) in transfected HepG2 cells; type: cell-based; conditions: each compound at 10 microM, transactivation activity of CDCA on FXR = 100%
T1 construct: expressed in transfected cells; host or cells: HepG2
T1 sequence (Q96RI1 1-486): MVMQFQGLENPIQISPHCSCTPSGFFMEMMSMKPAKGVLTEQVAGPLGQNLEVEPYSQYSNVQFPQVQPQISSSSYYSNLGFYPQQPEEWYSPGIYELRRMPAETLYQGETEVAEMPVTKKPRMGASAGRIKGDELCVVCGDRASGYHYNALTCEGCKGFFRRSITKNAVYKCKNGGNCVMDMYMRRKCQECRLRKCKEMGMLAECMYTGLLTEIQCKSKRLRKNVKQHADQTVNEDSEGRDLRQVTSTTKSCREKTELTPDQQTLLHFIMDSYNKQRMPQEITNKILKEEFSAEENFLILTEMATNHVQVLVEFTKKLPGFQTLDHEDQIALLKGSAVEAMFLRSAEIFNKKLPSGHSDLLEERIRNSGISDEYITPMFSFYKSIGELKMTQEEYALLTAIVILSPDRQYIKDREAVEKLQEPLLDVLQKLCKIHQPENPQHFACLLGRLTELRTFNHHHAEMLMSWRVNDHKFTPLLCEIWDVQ
T1 sequence (P19793 1-462 partner): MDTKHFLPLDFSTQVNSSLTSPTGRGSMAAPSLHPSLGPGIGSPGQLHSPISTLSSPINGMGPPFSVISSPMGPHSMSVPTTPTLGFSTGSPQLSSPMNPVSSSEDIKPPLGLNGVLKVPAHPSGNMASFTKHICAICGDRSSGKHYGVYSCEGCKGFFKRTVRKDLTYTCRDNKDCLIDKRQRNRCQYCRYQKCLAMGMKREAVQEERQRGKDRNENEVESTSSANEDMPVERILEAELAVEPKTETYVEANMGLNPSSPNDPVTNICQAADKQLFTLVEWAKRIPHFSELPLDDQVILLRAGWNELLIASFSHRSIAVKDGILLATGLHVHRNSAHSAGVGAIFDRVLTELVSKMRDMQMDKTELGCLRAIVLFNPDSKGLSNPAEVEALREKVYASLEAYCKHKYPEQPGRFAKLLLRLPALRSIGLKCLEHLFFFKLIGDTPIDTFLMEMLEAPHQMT
Procedure: (§1) Each compound was tested at the concentration of 10 microM and transactivation activity of CDCA on FXR and TLCA on CRE (i.e. TGR5/GPBAR1) was considered equal to 100%.
(§2) Biological Activities. Activity of selected compounds was tested in vitro using a whole cell model transfected with a reporter genes to establish selectivity of compounds shown in table 1 toward FXR and TGR5/GPBAR1 in comparison with chenodeoxycholic acid (CDCA) and TLCA. CDCA is a primary bile acid that functions as an endogenous ligand for FXR, while TLCA is a physiological ligand for TGR5/GPBAR1. In this assay, HepG2 cells (a liver-derived cell line) were cultured at 37° C. in minimum essential medium with Earl's salts containing 10% fetal bovine serum (FBS), 1% L-glutamine, and 1% penicillin/streptomycin. […] The transfection experiments were performed using Fugene HD according to manufactured specifications. Cells were plated in a 24-well plate at 5×10^4 cells/well. For FXR mediated transactivation, HepG2 cells were transfected with 100 ng of pSG5-FXR, 100 ng of pSG5-RXR, 100 ng of pGL4.70 a vector encoding the human Renilla gene and 250 ng of the reporter vector p(hsp27)-TK-LUC containing the FXR response element IR1 cloned from the promoter of heat shock protein 27 (hsp27).
(§3) At 24 h post-transfection, cells were stimulated for 18 h with 10 μM TLCA as a control agent or putative GPBAR1 agonists as the same concentration. After treatments, cells were lysed in 100 μL of lysis buffer (25 mM Tris-phosphate, pH 7.8; 2 mM DTT; 10% glycerol; 1% Triton X-100), and 20 μL of cellular lysate was assayed for luciferase activity using the luciferase assay system. Luminescence was measured using Glomax 20/20 luminometer. Luciferase activities were normalized against Renilla activities. Antagonism against FXR of GPBAR1/TGR5 was measured as percent of activity in transactivation assay suing activity of TLCA as example of agonism.

[2] = system: sea lamprey (Petromyzon marinus); conditions: cited from earlier work
[3] = target: T2, human GPBAR1 (Homo sapiens, UniProt Q8TDU6); test: GPBAR1 mediated transactivation (CRE luciferase reporter) in transfected HEK-293T cells; type: cell-based; conditions: each compound at 10 microM, transactivation activity of TLCA on CRE = 100%
T2 construct: expressed in transfected cells; host or cells: HEK-293T
T2 sequence (Q8TDU6 1-330): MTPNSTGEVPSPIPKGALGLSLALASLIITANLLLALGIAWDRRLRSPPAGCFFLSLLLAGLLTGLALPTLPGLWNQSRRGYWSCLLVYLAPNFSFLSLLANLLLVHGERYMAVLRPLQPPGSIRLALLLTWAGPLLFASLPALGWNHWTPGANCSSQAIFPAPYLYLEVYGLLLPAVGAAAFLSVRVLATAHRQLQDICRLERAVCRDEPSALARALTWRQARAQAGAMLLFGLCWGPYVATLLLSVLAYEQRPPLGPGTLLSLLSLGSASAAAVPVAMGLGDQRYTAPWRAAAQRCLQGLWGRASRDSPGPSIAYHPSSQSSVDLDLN
Procedure: as §1, §2, §3

[4] = target: T3, intestinal bile acid carrier (Homo sapiens, UniProt Q12908); conditions: CaCo-2 cells; cited from earlier work
T3 construct: host or cells: CaCo-2
T3 sequence (Q12908 1-348): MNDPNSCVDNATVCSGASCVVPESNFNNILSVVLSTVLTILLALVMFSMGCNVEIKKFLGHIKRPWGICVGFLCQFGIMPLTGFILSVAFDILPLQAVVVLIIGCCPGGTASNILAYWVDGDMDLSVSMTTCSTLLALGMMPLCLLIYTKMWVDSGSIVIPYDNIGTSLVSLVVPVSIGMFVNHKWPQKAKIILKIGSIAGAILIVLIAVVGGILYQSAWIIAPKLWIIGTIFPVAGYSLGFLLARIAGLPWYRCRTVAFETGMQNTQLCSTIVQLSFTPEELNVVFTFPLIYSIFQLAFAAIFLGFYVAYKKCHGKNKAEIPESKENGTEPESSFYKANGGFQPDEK

[5] = not given; remark: listed apart in the source
[6] = patients suffering from primary biliary cirrhosis (PBC), clinical trials; cited from earlier work
[7] = ANIT or 17α-ethynylestradiol cholestasis models

C[C@H](CCCOS(=O)(=O)O)[C@H]1CCC2C3CC[C@@H]4CCCC[C@]4(C)C3CC[C@@]21C (stereo partly drawn) [BAR407]
FXR (% of activity in comparison to 10 μM CDCA) [1]: 177.1 ± 3.5%
olfactory response [2]: did not to elicit an olfactory response
GPBAR1 (% of activity in comparison to 10 μM TLCA) [3]: 37.3 ± 2.5%

C[C@H](CC(=O)O)[C@H]1CCC2C3CC[C@@H]4CCCC[C@]4(C)C3CC[C@@]21C (stereo partly drawn) [BARn406]
FXR (% of activity in comparison to 10 μM CDCA) [1]: 27.0 ± 1.5%
ability to inhibit taurocholic acid transport [4]: undetectable
GPBAR1 (% of activity in comparison to 10 μM TLCA) [3]: 4.8 ± 1.8%

CC[C@H]1[C@@H](O)C2C3CC[C@H]([C@H](C)CCO)[C@@]3(C)CCC2[C@@]2(C)CC[C@@H](O)C[C@@H]12 (stereo partly drawn) [BAR502, 6α-ethyl-3α, 7α-dihydroxy-24-nor-5β-cholan-23-ol]
bile acid pool (17α-ethynylestradiol model): reshapes bile acid pool
cholestasis (17α-ethynylestradiol model): attenuates cholestasis
itching (mouse, in vivo): without inducing itching
liver expression of canonical FXR target genes including OSTα, BSEP, SHP and MDR1 [5, 7]: robustly modulates
serum alkaline phosphatase levels [5, 7]: attenuates
survival [5, 7]: increases survival
itching (pruritus) ([5]; mouse, in vivo): does not induce itching
FXR (% of activity in comparison to 10 μM CDCA) [1]: 263.0 ± 32.0%
GPBAR1 (% of activity in comparison to 10 μM TLCA) [3]: 74.5 ± 6.4%

C[C@H](CCO)[C@H]1CCC2C3C(CC[C@@]21C)[C@@]1(C)CC[C@@H](O)C[C@H]1C[C@@H]3O (stereo partly drawn) [BAR107, 3α,7β-dihydroxy-24-nor-5β-cholan-23-ol]
FXR (% of activity in comparison to 10 μM CDCA) [1]: 1.8 ± 0.3%
GPBAR1 (% of activity in comparison to 10 μM TLCA) [3]: 9.9 ± 1.7%

CC[C@H]1[C@@H](O)C2C3CC[C@H]([C@H](C)CC(=O)O)[C@@]3(C)CCC2[C@@]2(C)CCCC[C@@H]12 (stereo partly drawn) [BARn704, 6α-ethyl-7α-hydroxy-24-nor-5β-cholan-23-oic acid]
FXR (% of activity in comparison to 10 μM CDCA) [1]: 202.5 ± 1.5%
GPBAR1 (% of activity in comparison to 10 μM TLCA) [3]: 64 ± 2.0%

CC[C@H]1[C@H](O)[C@@H]2[C@H](CC[C@]3(C)[C@@H]([C@H](C)CCCO)CC[C@@H]23)[C@@]2(C)CC[C@@H](O)C[C@@H]12 [BAR501-6a, 6α-ethyl-3α,7β-dihydroxy-5β-cholan-24-ol]
FXR (% of activity in comparison to 10 μM CDCA) [1]: 15.4 ± 1.2%
GPBAR1 (% of activity in comparison to 10 μM TLCA) [3]: 46.6 ± 6.7%

CC[C@@H]1[C@H](O)[C@@H]2[C@H](CC[C@]3(C)[C@@H]([C@H](C)CCCO)CC[C@@H]23)[C@@]2(C)CC[C@@H](O)C[C@@H]12 [BAR501, 6β-ethyl-3α,7β-dihydroxy-5β-cholan-24-ol]
FXR (% of activity in comparison to 10 μM CDCA) [1]: 9.9 ± 0.1%
GPBAR1 (% of activity in comparison to 10 μM TLCA) [3]: 64.5 ± 0.5%

CC[C@H]1[C@@H](O)C2C3CC[C@H]([C@H](C)CC#N)[C@@]3(C)CCC2[C@@]2(C)CC[C@@H](O)C[C@@H]12 (stereo partly drawn) [BAR506, 6α-ethyl-3α,7α-dihydroxy-24-nor-5β-cholan-23-nitrile]
FXR (% of activity in comparison to 10 μM CDCA) [1]: 411.5 ± 36.5%
GPBAR1 (% of activity in comparison to 10 μM TLCA) [3]: 80.9 ± 9.5%

CC[C@H]1[C@@H](O)C2C3CC[C@H]([C@H](C)CCCCCO)[C@@]3(C)CCC2[C@@]2(C)CC[C@@H](O)C[C@@H]12 (stereo partly drawn) [BAR803, 6α-ethyl-3α, 7α-dihydroxy-25, 26-bishomo-5β-cholan-26-ol]
FXR (% of activity in comparison to 10 μM CDCA) [1]: 122.5 ± 5.5%
GPBAR1 (% of activity in comparison to 10 μM TLCA) [3]: 80.5 ± 5.0%

CC[C@@H]1[C@@H](O)[C@@H]2[C@H](CC[C@]3(C)[C@@H]([C@H](C)CCCO)CC[C@@H]23)[C@@]2(C)CC[C@H](O)C[C@@H]12 [BAR709, 6β-ethyl-3β,7α-dihydroxy-5β-cholan-24-ol]
FXR (% of activity in comparison to 10 μM CDCA) [1]: 33.7 ± 2.0%
GPBAR1 (% of activity in comparison to 10 μM TLCA) [3]: 54.2 ± 0.3%

CC[C@H]1[C@@H](O)C2C3CC[C@H]([C@H](C)CCO)[C@@]3(C)CCC2[C@@]2(C)CC[C@H](O)C[C@@H]12 (stereo partly drawn) [BARn706, 6α-ethyl-3β,7α-dihydroxy-24-nor-5β-cholan-23-ol]
FXR (% of activity in comparison to 10 μM CDCA) [1]: 197.5 ± 4.5%
GPBAR1 (% of activity in comparison to 10 μM TLCA) [3]: 69.5 ± 6.5%

CC[C@H]1[C@@H](O)[C@@H]2[C@H](CC[C@]3(C)[C@@H]([C@H](C)CCC(=O)O)CC[C@@H]23)[C@@]2(C)CC[C@@H](O)C[C@@H]12 [obeticholic acid]
patients with severe itching [6]: approximately 80%

CC[C@H]1[C@@H](O)C2C3CC[C@H]([C@H](C)CCCO)[C@@]3(C)CCC2[C@@]2(C)CC[C@@H](O)C[C@@H]12 (stereo partly drawn) [BAR504]
FXR (% of activity in comparison to 10 μM CDCA) [1]: 488.5 ± 17.5%
GPBAR1 (% of activity in comparison to 10 μM TLCA) [3]: 103.0 ± 12.1%

CC[C@H]1[C@H](O)[C@@H]2[C@H](CC[C@]3(C)[C@@H]([C@H](C)CCCO)CC[C@@H]23)[C@@]2(C)CCCC[C@@H]12 [BAR703, 6α-ethyl-7β-hydroxy-5β-cholan-24-ol]
FXR (% of activity in comparison to 10 μM CDCA) [1]: 8.6 ± 0.8%
GPBAR1 (% of activity in comparison to 10 μM TLCA) [3]: 47.7 ± 1.0%
